Data taken from ChEMBL document CHEMBL4507267 (2021).

Key:
Settings in all cases: Compound concentration 1000.0 nM
[1] = tested on: Tyrosine-protein kinase ABL1 (Homo sapiens), P00519 [H396P]
[2] = molecular target: 5'-AMP-activated protein kinase catalytic subunit alpha-1 (Homo sapiens) (UniProt Q13131)
[3] = molecular target: 5'-AMP-activated protein kinase catalytic subunit alpha-2 (Homo sapiens) (UniProt P54646)
[4] = molecular target: Bone morphogenetic protein receptor type-1A (Homo sapiens) (UniProt P36894)
[5] = molecular target: Cyclin-dependent kinase 7 (Homo sapiens) (UniProt P50613)
[6] = molecular target: Cyclin-dependent kinase-like 2 (Homo sapiens) (UniProt Q92772)
[7] = molecular target: Serine/threonine-protein kinase Chk2 (Homo sapiens) (UniProt O96017)
[8] = molecular target: Tyrosine-protein kinase CSK (Homo sapiens) (UniProt P41240)
[9] = molecular target: Megakaryocyte-associated tyrosine-protein kinase (Homo sapiens) (UniProt P42679)
[10] = molecular target: Discoidin domain-containing receptor 2 (Homo sapiens) (UniProt Q16832)
[11] = molecular target: Mitogen-activated protein kinase kinase kinase 12 (Homo sapiens) (UniProt Q12852)
Sequence of Mitogen-activated protein kinase kinase kinase 12 (Homo sapiens) (Q12852 whole entry): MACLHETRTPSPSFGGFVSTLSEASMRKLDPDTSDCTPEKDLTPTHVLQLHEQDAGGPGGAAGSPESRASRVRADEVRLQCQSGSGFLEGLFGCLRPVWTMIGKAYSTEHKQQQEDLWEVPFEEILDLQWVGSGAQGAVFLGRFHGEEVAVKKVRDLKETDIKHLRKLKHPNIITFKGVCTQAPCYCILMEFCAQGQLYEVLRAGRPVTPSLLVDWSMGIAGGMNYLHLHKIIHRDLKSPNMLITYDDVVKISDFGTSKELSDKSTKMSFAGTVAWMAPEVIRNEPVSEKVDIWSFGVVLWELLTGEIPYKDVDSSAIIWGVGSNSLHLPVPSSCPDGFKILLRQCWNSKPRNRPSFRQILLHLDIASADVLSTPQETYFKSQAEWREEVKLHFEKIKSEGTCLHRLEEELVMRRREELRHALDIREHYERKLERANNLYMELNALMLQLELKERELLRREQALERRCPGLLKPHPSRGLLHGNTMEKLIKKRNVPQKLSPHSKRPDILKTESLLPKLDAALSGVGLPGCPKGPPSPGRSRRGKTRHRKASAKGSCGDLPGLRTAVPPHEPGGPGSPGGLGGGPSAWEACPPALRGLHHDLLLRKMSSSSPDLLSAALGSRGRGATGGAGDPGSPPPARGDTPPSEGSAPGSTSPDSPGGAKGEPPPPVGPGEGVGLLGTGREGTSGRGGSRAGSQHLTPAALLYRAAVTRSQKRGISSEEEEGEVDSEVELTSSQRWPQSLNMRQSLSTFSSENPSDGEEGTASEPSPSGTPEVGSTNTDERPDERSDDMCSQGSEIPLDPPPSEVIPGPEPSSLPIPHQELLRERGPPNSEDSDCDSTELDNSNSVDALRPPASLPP

[12] = molecular target: Myotonin-protein kinase (Homo sapiens) (UniProt Q09013)
[13] = molecular target: Ephrin type-A receptor 2 (Homo sapiens) (UniProt P29317)
[14] = molecular target: Receptor tyrosine-protein kinase erbB-2 (Homo sapiens) (UniProt P04626)
Sequence of Receptor tyrosine-protein kinase erbB-2 (Homo sapiens) (P04626 whole entry): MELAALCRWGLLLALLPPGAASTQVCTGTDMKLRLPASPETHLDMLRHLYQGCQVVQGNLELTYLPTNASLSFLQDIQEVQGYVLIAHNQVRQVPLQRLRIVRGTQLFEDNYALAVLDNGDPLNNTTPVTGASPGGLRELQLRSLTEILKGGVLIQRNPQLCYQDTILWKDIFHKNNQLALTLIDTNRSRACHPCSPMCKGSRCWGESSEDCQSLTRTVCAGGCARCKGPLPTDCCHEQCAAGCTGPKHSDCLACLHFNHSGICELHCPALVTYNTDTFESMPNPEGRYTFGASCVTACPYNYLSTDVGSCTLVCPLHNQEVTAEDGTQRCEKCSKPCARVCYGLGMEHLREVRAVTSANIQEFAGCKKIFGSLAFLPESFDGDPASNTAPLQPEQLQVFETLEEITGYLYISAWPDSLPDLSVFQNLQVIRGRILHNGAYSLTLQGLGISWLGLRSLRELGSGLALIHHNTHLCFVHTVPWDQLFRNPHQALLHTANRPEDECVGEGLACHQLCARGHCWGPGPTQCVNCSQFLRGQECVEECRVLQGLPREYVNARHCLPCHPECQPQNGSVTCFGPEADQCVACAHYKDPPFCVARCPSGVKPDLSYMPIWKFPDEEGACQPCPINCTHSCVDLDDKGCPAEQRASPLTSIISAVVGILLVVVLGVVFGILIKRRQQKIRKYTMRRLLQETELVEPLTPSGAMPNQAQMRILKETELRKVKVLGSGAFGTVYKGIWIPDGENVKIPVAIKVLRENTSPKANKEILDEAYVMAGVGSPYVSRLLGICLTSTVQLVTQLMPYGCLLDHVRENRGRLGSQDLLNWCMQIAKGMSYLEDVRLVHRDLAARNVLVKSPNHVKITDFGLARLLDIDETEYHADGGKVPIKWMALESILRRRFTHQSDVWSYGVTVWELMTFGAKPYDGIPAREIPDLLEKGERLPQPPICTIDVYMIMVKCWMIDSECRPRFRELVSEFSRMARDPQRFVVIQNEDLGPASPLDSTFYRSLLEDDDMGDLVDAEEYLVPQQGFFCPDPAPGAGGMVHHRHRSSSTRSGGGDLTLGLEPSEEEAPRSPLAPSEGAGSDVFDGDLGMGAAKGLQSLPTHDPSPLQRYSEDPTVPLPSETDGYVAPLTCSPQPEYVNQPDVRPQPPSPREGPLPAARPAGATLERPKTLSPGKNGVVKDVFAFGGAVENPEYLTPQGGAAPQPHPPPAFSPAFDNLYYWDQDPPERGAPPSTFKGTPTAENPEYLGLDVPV

[15] = molecular target: Tyrosine-protein kinase Fgr (Homo sapiens) (UniProt P09769)
[16] = tested on: Receptor-type tyrosine-protein kinase FLT3 (Homo sapiens), P36888 [D835V]
[17] = tested on: Receptor-type tyrosine-protein kinase FLT3 (Homo sapiens), P36888 [UNDEFINED MUTATION]
[18] = molecular target: Vascular endothelial growth factor receptor 3 (Homo sapiens) (UniProt P35916)
[19] = molecular target: Tyrosine-protein kinase FRK (Homo sapiens) (UniProt P42685)
[20] = molecular target: Beta-adrenergic receptor kinase 1 (Homo sapiens) (UniProt P25098)
Sequence of Beta-adrenergic receptor kinase 1 (Homo sapiens) (P25098 whole entry): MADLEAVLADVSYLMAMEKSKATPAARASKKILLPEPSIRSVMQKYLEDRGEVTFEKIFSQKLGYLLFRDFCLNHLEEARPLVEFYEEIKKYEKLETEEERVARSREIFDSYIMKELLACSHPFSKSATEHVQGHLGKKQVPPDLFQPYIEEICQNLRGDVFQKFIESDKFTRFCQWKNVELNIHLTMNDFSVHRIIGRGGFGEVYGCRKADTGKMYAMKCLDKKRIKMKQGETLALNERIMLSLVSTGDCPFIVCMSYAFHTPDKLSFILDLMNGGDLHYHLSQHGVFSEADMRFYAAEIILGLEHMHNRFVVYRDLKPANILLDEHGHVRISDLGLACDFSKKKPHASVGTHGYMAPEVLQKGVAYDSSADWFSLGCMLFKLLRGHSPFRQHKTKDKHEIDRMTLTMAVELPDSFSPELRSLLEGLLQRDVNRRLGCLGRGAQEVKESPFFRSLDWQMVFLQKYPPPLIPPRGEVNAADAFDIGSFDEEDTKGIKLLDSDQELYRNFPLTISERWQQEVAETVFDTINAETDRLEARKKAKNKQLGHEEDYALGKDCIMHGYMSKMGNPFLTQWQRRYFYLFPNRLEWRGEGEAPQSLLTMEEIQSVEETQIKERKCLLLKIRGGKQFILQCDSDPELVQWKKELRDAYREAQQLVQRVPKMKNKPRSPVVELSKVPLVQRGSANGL

[21] = molecular target: Homeodomain-interacting protein kinase 1 (Homo sapiens) (UniProt Q86Z02)
[22] = molecular target: Insulin receptor-related protein (Homo sapiens) (UniProt P14616)
[23] = tested on: Mast/stem cell growth factor receptor Kit (Homo sapiens), P10721 [V559D,T670I]
[24] = molecular target: Tyrosine-protein kinase Lck (Homo sapiens) (UniProt P06239)
Sequence of Tyrosine-protein kinase Lck (Homo sapiens) (P06239 2-509 limits assumed): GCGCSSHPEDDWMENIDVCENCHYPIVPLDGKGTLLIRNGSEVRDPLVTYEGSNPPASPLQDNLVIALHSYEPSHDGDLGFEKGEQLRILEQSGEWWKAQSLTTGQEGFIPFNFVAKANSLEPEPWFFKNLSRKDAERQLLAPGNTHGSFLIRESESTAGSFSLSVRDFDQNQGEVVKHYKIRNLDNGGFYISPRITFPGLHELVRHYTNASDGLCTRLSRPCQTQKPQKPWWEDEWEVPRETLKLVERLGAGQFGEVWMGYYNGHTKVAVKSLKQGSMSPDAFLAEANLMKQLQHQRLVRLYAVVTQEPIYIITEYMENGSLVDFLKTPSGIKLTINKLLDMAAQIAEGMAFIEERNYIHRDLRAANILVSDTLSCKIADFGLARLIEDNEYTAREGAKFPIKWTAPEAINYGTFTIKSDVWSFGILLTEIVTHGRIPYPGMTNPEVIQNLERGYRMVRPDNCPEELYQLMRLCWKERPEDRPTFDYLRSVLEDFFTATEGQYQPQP

[25] = molecular target: Mitogen-activated protein kinase kinase kinase kinase 4 (Homo sapiens) (UniProt O95819)
[26] = molecular target: MAP kinase-interacting serine/threonine-protein kinase 1 (Homo sapiens) (UniProt Q9BUB5)
[27] = molecular target: Serine/threonine-protein kinase 4 (Homo sapiens) (UniProt Q13043)
[28] = molecular target: Myosin light chain kinase family member 4 (Homo sapiens) (UniProt Q86YV6)
[29] = molecular target: Serine/threonine-protein kinase 38 (Homo sapiens) (UniProt Q15208)
[30] = molecular target: Phosphatidylinositol 4,5-bisphosphate 3-kinase catalytic subunit alpha isoform (Homo sapiens) (UniProt P42336)
Sequence of Phosphatidylinositol 4,5-bisphosphate 3-kinase catalytic subunit alpha isoform (Homo sapiens) (P42336 whole entry, canonical isoform): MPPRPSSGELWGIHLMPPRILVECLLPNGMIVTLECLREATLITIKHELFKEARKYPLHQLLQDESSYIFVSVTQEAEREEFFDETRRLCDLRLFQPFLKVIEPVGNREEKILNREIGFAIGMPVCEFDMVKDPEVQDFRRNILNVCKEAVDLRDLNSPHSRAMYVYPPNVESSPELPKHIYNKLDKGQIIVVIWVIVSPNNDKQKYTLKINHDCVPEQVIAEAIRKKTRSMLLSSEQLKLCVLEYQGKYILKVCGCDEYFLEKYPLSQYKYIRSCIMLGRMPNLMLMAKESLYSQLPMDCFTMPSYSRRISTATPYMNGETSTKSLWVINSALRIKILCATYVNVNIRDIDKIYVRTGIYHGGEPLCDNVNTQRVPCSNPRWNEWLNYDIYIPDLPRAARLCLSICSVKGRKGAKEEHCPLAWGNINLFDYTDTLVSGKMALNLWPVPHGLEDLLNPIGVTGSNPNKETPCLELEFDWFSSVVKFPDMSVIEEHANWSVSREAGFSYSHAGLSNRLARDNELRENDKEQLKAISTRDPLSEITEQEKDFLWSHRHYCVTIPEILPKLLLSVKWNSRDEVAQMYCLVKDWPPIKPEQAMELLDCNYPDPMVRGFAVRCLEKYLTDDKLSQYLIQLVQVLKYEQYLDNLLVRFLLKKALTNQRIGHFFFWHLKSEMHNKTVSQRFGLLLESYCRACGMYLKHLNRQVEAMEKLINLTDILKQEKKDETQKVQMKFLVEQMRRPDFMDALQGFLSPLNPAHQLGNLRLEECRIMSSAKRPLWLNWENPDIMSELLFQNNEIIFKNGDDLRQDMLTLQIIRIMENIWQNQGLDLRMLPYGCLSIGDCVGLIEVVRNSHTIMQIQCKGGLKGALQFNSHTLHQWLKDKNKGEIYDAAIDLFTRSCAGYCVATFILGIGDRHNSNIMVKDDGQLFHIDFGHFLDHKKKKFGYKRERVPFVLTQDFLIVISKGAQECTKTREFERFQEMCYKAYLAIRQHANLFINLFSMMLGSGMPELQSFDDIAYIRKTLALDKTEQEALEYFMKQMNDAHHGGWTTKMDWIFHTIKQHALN

[31] = tested on: Phosphatidylinositol 4,5-bisphosphate 3-kinase catalytic subunit alpha isoform (Homo sapiens), P42336 [E545K]
Sequence of Phosphatidylinositol 4,5-bisphosphate 3-kinase catalytic subunit alpha isoform (Homo sapiens), P42336 [E545K] (P42336 whole entry E545K, canonical isoform): as the sequence (P42336 whole entry, canonical isoform) above, with E545K counted along it

[32] = molecular target: Serine/threonine-protein kinase PknB (Mycobacterium tuberculosis) (UniProt P9WI81)
[33] = molecular target: Protein kinase C epsilon type (Homo sapiens) (UniProt Q02156)
[34] = molecular target: Protein kinase C theta type (Homo sapiens) (UniProt Q04759)
[35] = tested on: Proto-oncogene tyrosine-protein kinase receptor Ret (Homo sapiens), P07949 [M918T]
[36] = molecular target: Receptor-interacting serine/threonine-protein kinase 2 (Homo sapiens) (UniProt O43353)
[37] = molecular target: Serine/threonine-protein kinase Sgk1 (Homo sapiens) (UniProt O00141)
[38] = molecular target: Serine/threonine-protein kinase Sgk2 (Homo sapiens) (UniProt Q9HBY8)
Sequence of Serine/threonine-protein kinase Sgk2 (Homo sapiens) (Q9HBY8 whole entry): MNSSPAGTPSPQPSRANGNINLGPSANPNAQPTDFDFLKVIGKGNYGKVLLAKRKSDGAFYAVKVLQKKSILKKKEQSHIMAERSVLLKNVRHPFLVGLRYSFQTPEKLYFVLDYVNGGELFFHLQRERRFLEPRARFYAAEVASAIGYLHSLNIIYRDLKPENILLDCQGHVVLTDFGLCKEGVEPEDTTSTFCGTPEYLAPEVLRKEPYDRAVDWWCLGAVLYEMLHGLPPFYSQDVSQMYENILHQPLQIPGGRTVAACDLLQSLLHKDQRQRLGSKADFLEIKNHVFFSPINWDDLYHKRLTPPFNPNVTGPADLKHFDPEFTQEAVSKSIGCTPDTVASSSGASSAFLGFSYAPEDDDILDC

[39] = molecular target: STE20-like serine/threonine-protein kinase (Homo sapiens) (UniProt Q9H2G2)
[40] = molecular target: Serine/threonine-protein kinase TAO3 (Homo sapiens) (UniProt Q9H2K8)
[41] = molecular target: Serine/threonine-protein kinase tousled-like 2 (Homo sapiens) (UniProt Q86UE8)
[42] = molecular target: High affinity nerve growth factor receptor (Homo sapiens) (UniProt P04629)
[43] = molecular target: Non-receptor tyrosine-protein kinase TYK2 (Homo sapiens) (UniProt P29597)
[44] = molecular target: Tyrosine-protein kinase receptor TYRO3 (Homo sapiens) (UniProt Q06418)
[45] = molecular target: Phosphatidylinositol 3-kinase catalytic subunit type 3 (Homo sapiens) (UniProt Q8NEB9)

Cc1c(NC(=O)c2cc(C(N)=O)nc3cc(F)ccc23)c(C(F)(F)F)nn1Cc1ccc(C(C)(C)C)cc1 [BAY-588]
residual activity [1]: 100%
residual activity [2]: 100%
residual activity [3]: 100%
residual activity [4]: 100%
residual activity [5]: 100%
residual activity [6]: 100%
residual activity [7]: 99%
residual activity [8]: 94%
residual activity [9]: 66%
residual activity [10]: 93%
residual activity [11]: 100%
residual activity [12]: 100%
residual activity [13]: 97%
residual activity [14]: 92%
residual activity [15]: 96%
residual activity [16]: 100%
residual activity [17]: 95%
residual activity [18]: 91%
residual activity [19]: 90%
residual activity [20]: 100%
residual activity [21]: 92%
residual activity [22]: 96%
residual activity [23]: 100%
residual activity [24]: 100%
residual activity [25]: 76%
residual activity [26]: 100%
residual activity [27]: 95%
residual activity [28]: 100%
residual activity [29]: 93%
residual activity [30]: 100%
residual activity [31]: 100%
residual activity [32]: 95%
residual activity [33]: 67%
residual activity [34]: 91%
residual activity [35]: 96%
residual activity [36]: 93%
residual activity [37]: 100%
residual activity [38]: 100%
residual activity [39]: 100%
residual activity [40]: 45%
residual activity [41]: 100%
residual activity [42]: 89%
residual activity [43]: 100%
residual activity [44]: 100%
residual activity [45]: 100%

Cc1c(NC(=O)c2cc(C(N)=O)nc3cc(F)ccc23)c(C(F)(F)F)nn1Cc1ccc(C#N)cc1 [BAY-876]
residual activity [1]: 81%
residual activity [2]: 86%
residual activity [3]: 100%
residual activity [4]: 84%
residual activity [5]: 52%
residual activity [6]: 92%
residual activity [7]: 73%
residual activity [8]: 100%
residual activity [9]: 66%
residual activity [10]: 66%
residual activity [11]: 89%
residual activity [12]: 92%
residual activity [13]: 81%
residual activity [14]: 100%
residual activity [15]: 93%
residual activity [16]: 100%
residual activity [17]: 80%
residual activity [18]: 100%
residual activity [19]: 100%
residual activity [20]: 87%
residual activity [21]: 73%
residual activity [22]: 92%
residual activity [23]: 89%
residual activity [24]: 98%
residual activity [25]: 84%
residual activity [26]: 68%
residual activity [27]: 84%
residual activity [28]: 90%
residual activity [29]: 94%
residual activity [30]: 100%
residual activity [31]: 73%
residual activity [32]: 78%
residual activity [33]: 74%
residual activity [34]: 80%
residual activity [35]: 96%
residual activity [36]: 100%
residual activity [37]: 90%
residual activity [38]: 80%
residual activity [39]: 100%
residual activity [40]: 79%
residual activity [41]: 100%
residual activity [42]: 83%
residual activity [43]: 83%
residual activity [44]: 81%
residual activity [45]: 99%
